These compounds were tested against Estrogen receptor beta (Homo sapiens, UniProt Q92731) (assay: Inhibition of human estrogen receptor 2 using tritiated estradiol incubated for 3 hr).
Sequence of Estrogen receptor beta (Q92731 whole entry): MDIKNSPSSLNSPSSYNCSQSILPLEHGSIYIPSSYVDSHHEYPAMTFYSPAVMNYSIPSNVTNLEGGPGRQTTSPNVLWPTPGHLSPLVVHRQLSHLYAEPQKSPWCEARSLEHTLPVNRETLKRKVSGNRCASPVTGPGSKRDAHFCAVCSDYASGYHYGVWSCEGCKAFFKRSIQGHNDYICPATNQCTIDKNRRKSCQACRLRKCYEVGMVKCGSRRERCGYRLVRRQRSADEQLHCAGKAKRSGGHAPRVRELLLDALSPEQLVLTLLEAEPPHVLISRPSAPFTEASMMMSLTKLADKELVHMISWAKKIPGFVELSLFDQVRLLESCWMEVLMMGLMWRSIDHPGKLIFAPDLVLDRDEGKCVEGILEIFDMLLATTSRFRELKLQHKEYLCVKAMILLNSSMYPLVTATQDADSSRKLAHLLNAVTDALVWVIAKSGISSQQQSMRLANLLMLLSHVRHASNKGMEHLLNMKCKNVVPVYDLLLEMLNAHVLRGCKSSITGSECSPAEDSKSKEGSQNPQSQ

SMILES	IC50 [nM]
C[C@@H]1CCN([C@@H](C)COc2ccc([C@@H]3Oc4ccc(O)c(F)c4S[C@@H]3c3cccc(O)c3)cc2)C1	9.1
C[C@@H]1CCN([C@@H](C)COc2ccc([C@@H]3Oc4ccc(O)cc4S[C@@H]3c3cccc(O)c3)cc2)C1	69
C[C@@H]1CCN([C@@H](C)COc2ccc([C@@H]3Oc4ccc(O)c(F)c4S[C@@H]3c3ccc(O)cc3)cc2)C1	5.3

Reference: ChEMBL document CHEMBL1142800, “Estrogen receptor ligands. Part 13: Dihydrobenzoxathiin SERAMs with an optimized antagonist side chain” (Bioorg Med Chem Lett, 2005)
